Experimental findings from patent US4303664A, “Novel penicillin derivatives containing a coumarin nucleus and medicines containing the same” (Teijin Limited, priority 1978, dated 1981) are described below.

SMILES strings stand for the structures. Values after ≈ are worked out from the molar mass of the structure shown. Where two headings read alike, the source gives them in different places.

What all share (format): cell-based
In test [1] the test system is Pseudomonas aeruginosa 0-37. The test can be described thus: Bactericidal test (MIC), Pseudomonas aeruginosa 0-37. Particulars: 037; (13) Pseudomonas aeruginosa 0-37. The text has this:
(§1) Results of bactericidal tests (MIC, r/ml) on the penicillin derivatives of this invention prepared in the above examples are shown in the following table.

The test system of test [2] is Pseudomonas aeruginosa Tid-53. The test can be described thus: Bactericidal test (MIC), Pseudomonas aeruginosa Tid-53. As to conditions: TID53; (14) Pseudomonas aeruginosa Tid-53.
Description: as §1

Test [3] concerns Rettgerella var. Tid-21. The experiment in a line: Bactericidal test (MIC), Rettgerella var. Tid-21.
Description: as §1

The subject of test [4] is Bacillus subtilis. The test can be described thus: Bactericidal test (MIC), Bacillus subtilis. As to conditions: (3) Bacillus subtilis.
Description: as §1

Test [5] has as its system Enterobactor cloacae 147. The test can be described thus: Bactericidal test (MIC), Enterobactor cloacae 147. Particulars: (7) Enterobactor cloacae 147.
Description: as §1

The test system of test [6] is Pseudomonas aeruginosa IFO-3080. The test can be described thus: Bactericidal test (MIC), Pseudomonas aeruginosa IFO-3080. As to conditions: IFO3080.
Description: as §1

Test [7] has as its system Escherichia Coli NIHJ JC-2. The test can be described thus: Bactericidal test (MIC), Escherichia Coli NIHJ JC-2. As to conditions: NIHJJC2; (5) Escherichia Coli NIHJ JC-2.
Description: as §1

Test [8] relates to Klebsiella neumoniae ATCC10031. The test can be described thus: Bactericidal test (MIC), Klebsiella neumoniae ATCC10031.
Description: as §1

Test [9] relates to Pseudomonas aeruginosa 130. The test can be described thus: Bactericidal test (MIC), Pseudomonas aeruginosa 130. Particulars: (16) Pseudomonas aeruginosa 130.
Description: as §1

The subject of test [10] is Staphylococcus aureus 209-p. The test can be described thus: Bactericidal test (MIC), Staphylococcus aureus 209-p. Particulars: (1) Staphylococcus aureus 209-p.
Description: as §1

The subject of test [11] is Enterobacter cloacae IF012937. The experiment in a line: Bactericidal test (MIC), Enterobacter cloacae IF012937. Particulars: (8) Enterobacter cloacae IF012937.
Description: as §1

Test [12] has as its system Serratia G-18. The test can be described thus: Bactericidal test (MIC), Serratia G-18. As to conditions: G18.
Description: as §1

Test [13] deals with Staphylococcus aureus 1248. The experiment in a line: Bactericidal test (MIC), Staphylococcus aureus 1248.
Description: as §1

For test [14], the system named is Salmonella typhimurium G-20. The test can be described thus: Bactericidal test (MIC), Salmonella typhimurium G-20. As to conditions: Salmonella enterica; (4) Salmonella typhimurium G-20.
Description: as §1

Test [15] relates to Pseudomonas aeruginosa GN-315. The experiment in a line: Bactericidal test (MIC), Pseudomonas aeruginosa GN-315. Particulars: GN315; (15) Pseudomonas aeruginosa GN-315.
Description: as §1

The test system of test [16] is Morganella var. G-2. The test can be described thus: Bactericidal test (MIC), Morganella var. G-2. Particulars: VAR.G2.
Description: as §1

[17] abbreviates: (10) Rettgerella var. Tid-21, read-out: MIC.
[18] abbreviates: (12) Pseudomonas aeruginosa IFO-3080, read-out: MIC.
Setting [19] is: (6) Klebsiella neumoniae ATCC10031, read-out: MIC.
Where [20] appears, read: (11) Serratia G-18, read-out: MIC.
The mark [21] stands for this setting: (2) Staphylococcus aureus 1248, read-out: MIC.
Setting [22] is: (9) Morganella var. G-2, read-out: MIC.

As for `CC1(C)S[C@@H]2[C@H](NC(=O)[C@H](NC(=O)c3cc4cc([N+](=O)[O-])ccc4oc3=O)c3ccccc3)C(=O)N2[C@H]1C(=O)O` [Example 13, D(-)-α-(6-Nitrocoumarin-3-carbonamido)benzylpenicillin], the MIC was 100 µg/mL (≈ 177 µM) in test [1]; 25 µg/mL (≈ 44.1 µM) in [2]; 50 µg/mL (≈ 88.3 µM) in test [3] (setting [17]); less than 0.4 µg/mL in test [4]; 25 µg/mL (≈ 44.1 µM) in test [5]; 6.25 µg/mL (≈ 11 µM) in test [6] (setting [18]). Also, the MIC in test [7] was less than 0.4 µg/mL; in test [8] (setting [19]), 12.5 µg/mL (≈ 22.1 µM); in [9] it was 6.25 µg/mL (≈ 11 µM); in [10], less than 0.4 µg/mL; in [11], 12.5 µg/mL (≈ 22.1 µM); in test [12] (setting [20]), 50 µg/mL (≈ 88.3 µM). In addition, the minimal inhibitory concentration (MIC) in [13] (setting [21]) is 6.25 µg/mL (≈ 11 µM); in test [14] it was less than 0.4 µg/mL; in test [15], 12.5 µg/mL (≈ 22.1 µM); in [16] (setting [22]), 6.25 µg/mL (≈ 11 µM).
With `CCOc1ccc2oc(=O)c(C(=O)N[C@@H](C(=O)N[C@@H]3C(=O)N4[C@@H]3SC(C)(C)[C@@H]4C(=O)O)c3ccccc3)cc2c1` [Example 23, D-α-(6-Ethoxycoumarin-3-carbonamido)benzylpenicillin], the MIC in test [1] is 12.5 µg/mL (≈ 22.1 µM); in test [2], 3.13 µg/mL (≈ 5.53 µM); in test [3] (setting [17]), 3.13 µg/mL (≈ 5.53 µM); in [5] it was 1.56 µg/mL (≈ 2.76 µM); in test [6] (setting [18]), 0.8 µg/mL (≈ 1.41 µM); in test [7] it was less than 0.4 µg/mL. Also, the minimum inhibitory concentration (MIC) in [8] (setting [19]) is 6.25 µg/mL (≈ 11.1 µM); in [9], 1.56 µg/mL (≈ 2.76 µM); in test [10] it was less than 0.4 µg/mL; in test [11], 6.25 µg/mL (≈ 11.1 µM); in test [12] (setting [20]), 25 µg/mL (≈ 44.2 µM); in test [15] it was 3.13 µg/mL (≈ 5.53 µM). In addition, in test [16] (setting [22]), the MIC is 3.13 µg/mL (≈ 5.53 µM).
Regarding `CC1(C)S[C@@H]2[C@H](NC(=O)[C@H](NC(=O)c3cc4cccc(O)c4oc3=O)c3ccccc3)C(=O)N2[C@H]1C(=O)O` [Example 26, D(-)-α-(8-Hydroxycoumarin-3-carbonamido)benzylpenicillin], the MIC in test [1] was 50 µg/mL (≈ 93 µM); in test [2] it was 6.25 µg/mL (≈ 11.6 µM); in test [3] (setting [17]), 1.56 µg/mL (≈ 2.9 µM); in test [4], less than 0.4 µg/mL; in test [5] it was 3.13 µg/mL (≈ 5.82 µM); in [6] (setting [18]), less than 0.4 µg/mL. Besides, the MIC in [7] was less than 0.4 µg/mL; in test [9], 1.56 µg/mL (≈ 2.9 µM); in test [10] it was less than 0.4 µg/mL; in test [11], 12.5 µg/mL (≈ 23.3 µM); in [12] (setting [20]), 12.5 µg/mL (≈ 23.3 µM); in test [15], 1.56 µg/mL (≈ 2.9 µM). For the same compound, the minimal inhibitory concentration (MIC) in test [16] (setting [22]) was 1.56 µg/mL (≈ 2.9 µM).
In the case of `CC1(C)S[C@@H]2[C@H](NC(=O)C(C(=O)O)c3ccccc3)C(=O)N2[C@H]1C(=O)O` (stereo partly shown) [Carbenicillin, carbenicillin, reference compound], the minimal inhibitory concentration (MIC) is greater than 400 µg/mL in [1]; 200 µg/mL (≈ 529 µM) in [2]; 25 µg/mL (≈ 66.1 µM) in test [3] (setting [17]); less than 0.8 µg/mL in test [4]; 200 µg/mL (≈ 529 µM) in test [5]; 12.5 µg/mL (≈ 33 µM) in [6] (Pseudomonas aeruginosa). For the same compound, the MIC in test [7] was less than 0.8 µg/mL; in [8] (setting [19]) it was 50 µg/mL (≈ 132 µM); in test [9] it was 25 µg/mL (≈ 66.1 µM); in test [10] it was less than 0.8 µg/mL; in [12] (Serratia), 6.25 µg/mL (≈ 16.5 µM); in test [13] (Staphylococcus aureus, 1248), 3.13 µg/mL (≈ 8.27 µM). In addition, the minimal inhibitory concentration (MIC) is less than 0.8 µg/mL in [14], 100 µg/mL (≈ 264 µM) in test [15] and 1.56 µg/mL (≈ 4.12 µM) in test [16] (setting [22]).
As for `CC1(C)S[C@@H]2[C@H](NC(=O)[C@H](N)c3ccccc3)C(=O)N2[C@H]1C(=O)O` [Ampicillin, ampicillin, reference compound], the MIC in test [1] was greater than 400 µg/mL; in test [2], greater than 400 µg/mL; in [3] it was 6.25 µg/mL (≈ 17.9 µM); in test [4], less than 0.8 µg/mL; in test [5], 400 µg/mL (≈ 1140 µM); in test [6] (setting [18]) it was 200 µg/mL (≈ 572 µM). Moreover, the minimal inhibitory concentration (MIC) is less than 0.8 µg/mL in [7]; 12.5 µg/mL (≈ 35.8 µM) in test [8] (Klebsiella, ATCC10031); greater than 400 µg/mL in test [9]; less than 0.8 µg/mL in [10]; 25 µg/mL (≈ 71.5 µM) in test [12] (setting [20]); less than 0.8 µg/mL in [13] (setting [21]). The minimum inhibitory concentration (MIC) in test [14] is less than 0.8 µg/mL; in [15], greater than 400 µg/mL; in test [16] (Morganella) it was 12.5 µg/mL (≈ 35.8 µM).
For `CC(=O)Oc1cccc2cc(C(=O)N[C@@H](C(=O)N[C@@H]3C(=O)N4[C@@H]3SC(C)(C)[C@@H]4C(=O)O)c3ccccc3)c(=O)oc12` [Example 21, D-α-(8-Acetoxycoumarin-3-carbonamido)benzylpenicillin], the minimum inhibitory concentration (MIC) in test [1] was 50 µg/mL (≈ 86.3 µM); in [2], 12.5 µg/mL (≈ 21.6 µM); in [3] (setting [17]), 1.56 µg/mL (≈ 2.69 µM); in [6] (setting [18]), less than 0.4 µg/mL; in test [7] it was less than 0.4 µg/mL; in test [8] (setting [19]) it was 0.8 µg/mL (≈ 1.38 µM). The MIC is 0.8 µg/mL (≈ 1.38 µM) in test [9]; less than 0.4 µg/mL in [10]; 6.25 µg/mL (≈ 10.8 µM) in test [11]; 12.5 µg/mL (≈ 21.6 µM) in test [12] (setting [20]); 3.13 µg/mL (≈ 5.4 µM) in test [13] (setting [21]); 3.13 µg/mL (≈ 5.4 µM) in [15]. In test [16] (setting [22]), the minimal inhibitory concentration (MIC) turned out to be 1.56 µg/mL (≈ 2.69 µM).

Broadly, the MIC is the lowest concentration that inhibits growth of the organism.
